# Active and inactive are the calls of the source. No rule for the calls is given here.
# Tested on: CCRIS mutagenicity, Ames/micronucleus/aberration tests
# Assay: CCRIS mutagenicity studies
# [1] = Test System: AMES SALMONELLA TYPHIMURIUM, Strain/Indicator: TA97, Metabolic Activation: NONE, Method: PREINCUBATION
# [2] = Test System: AMES SALMONELLA TYPHIMURIUM, Strain/Indicator: TA98, Metabolic Activation: NONE, Method: PREINCUBATION
# [3] = Test System: AMES SALMONELLA TYPHIMURIUM, Strain/Indicator: TA100, Metabolic Activation: NONE, Method: PREINCUBATION
# [4] = Test System: AMES SALMONELLA TYPHIMURIUM, Strain/Indicator: TA1535, Metabolic Activation: NONE, Method: PREINCUBATION
structure (smiles),measurement,setting,value
O=Cc1ccc(Cl)c(Cl)c1,mutagenic call,"Test System: AMES SALMONELLA TYPHIMURIUM, Strain/Indicator: TA97, Metabolic Activation: HAMSTER, LIVER, S-9, AROCLOR 1254 (10%), Method: PREINCUBATION",inactive; negative
same,mutagenic call,"Test System: AMES SALMONELLA TYPHIMURIUM, Strain/Indicator: TA97, Metabolic Activation: HAMSTER, LIVER, S-9, AROCLOR 1254 (30%), Method: PREINCUBATION",inactive; negative
same,mutagenic call,[1],inactive; negative
same,mutagenic call,"Test System: AMES SALMONELLA TYPHIMURIUM, Strain/Indicator: TA97, Metabolic Activation: RAT, LIVER, S-9, AROCLOR 1254 (10%), Method: PREINCUBATION",inactive; negative
same,mutagenic call,"Test System: AMES SALMONELLA TYPHIMURIUM, Strain/Indicator: TA97, Metabolic Activation: RAT, LIVER, S-9, AROCLOR 1254 (30%), Method: PREINCUBATION",inactive; negative
same,mutagenic call,"Test System: AMES SALMONELLA TYPHIMURIUM, Strain/Indicator: TA98, Metabolic Activation: HAMSTER, LIVER, S-9, AROCLOR 1254 (10%), Method: PREINCUBATION",inactive; negative
same,mutagenic call,"Test System: AMES SALMONELLA TYPHIMURIUM, Strain/Indicator: TA98, Metabolic Activation: HAMSTER, LIVER, S-9, AROCLOR 1254 (30%), Method: PREINCUBATION",inactive; negative
same,mutagenic call,[2],inactive; negative
same,mutagenic call,"Test System: AMES SALMONELLA TYPHIMURIUM, Strain/Indicator: TA98, Metabolic Activation: RAT, LIVER, S-9, AROCLOR 1254 (10%), Method: PREINCUBATION",inactive; negative
same,mutagenic call,"Test System: AMES SALMONELLA TYPHIMURIUM, Strain/Indicator: TA98, Metabolic Activation: RAT, LIVER, S-9, AROCLOR 1254 (30%), Method: PREINCUBATION",inactive; negative
same,mutagenic call,"Test System: AMES SALMONELLA TYPHIMURIUM, Strain/Indicator: TA100, Metabolic Activation: HAMSTER, LIVER, S-9, AROCLOR 1254 (10%), Method: PREINCUBATION",inactive; negative
same,mutagenic call,"Test System: AMES SALMONELLA TYPHIMURIUM, Strain/Indicator: TA100, Metabolic Activation: HAMSTER, LIVER, S-9, AROCLOR 1254 (30%), Method: PREINCUBATION",inactive; negative
same,mutagenic call,[3],inactive; negative
same,mutagenic call,"Test System: AMES SALMONELLA TYPHIMURIUM, Strain/Indicator: TA100, Metabolic Activation: RAT, LIVER, S-9, AROCLOR 1254 (10%), Method: PREINCUBATION",inactive; negative
same,mutagenic call,"Test System: AMES SALMONELLA TYPHIMURIUM, Strain/Indicator: TA100, Metabolic Activation: RAT, LIVER, S-9, AROCLOR 1254 (30%), Method: PREINCUBATION",inactive; negative
same,mutagenic call,"Test System: AMES SALMONELLA TYPHIMURIUM, Strain/Indicator: TA104, Metabolic Activation: HAMSTER, LIVER, S-9, AROCLOR 1254 (10%), Method: PREINCUBATION",inactive; negative
same,mutagenic call,"Test System: AMES SALMONELLA TYPHIMURIUM, Strain/Indicator: TA104, Metabolic Activation: HAMSTER, LIVER, S-9, AROCLOR 1254 (30%), Method: PREINCUBATION",inactive; negative
same,mutagenic call,"Test System: AMES SALMONELLA TYPHIMURIUM, Strain/Indicator: TA104, Metabolic Activation: NONE, Method: PREINCUBATION",inactive; negative
same,mutagenic call,"Test System: AMES SALMONELLA TYPHIMURIUM, Strain/Indicator: TA104, Metabolic Activation: RAT, LIVER, S-9, AROCLOR 1254 (10%), Method: PREINCUBATION",inactive; negative
same,mutagenic call,"Test System: AMES SALMONELLA TYPHIMURIUM, Strain/Indicator: TA104, Metabolic Activation: RAT, LIVER, S-9, AROCLOR 1254 (30%), Method: PREINCUBATION",inactive; negative
same,mutagenic call,"Test System: AMES SALMONELLA TYPHIMURIUM, Strain/Indicator: TA1535, Metabolic Activation: HAMSTER, LIVER, S-9, AROCLOR 1254 (10%), Method: PREINCUBATION",inactive; negative
same,mutagenic call,"Test System: AMES SALMONELLA TYPHIMURIUM, Strain/Indicator: TA1535, Metabolic Activation: HAMSTER, LIVER, S-9, AROCLOR 1254 (30%), Method: PREINCUBATION",inactive; negative
same,mutagenic call,[4],inactive; negative
same,mutagenic call,"Test System: AMES SALMONELLA TYPHIMURIUM, Strain/Indicator: TA1535, Metabolic Activation: RAT, LIVER, S-9, AROCLOR 1254 (10%), Method: PREINCUBATION",inactive; negative
same,mutagenic call,"Test System: AMES SALMONELLA TYPHIMURIUM, Strain/Indicator: TA1535, Metabolic Activation: RAT, LIVER, S-9, AROCLOR 1254 (30%), Method: PREINCUBATION",inactive; negative
O=P(O)(O)O,mutagenic call,"End Point: IN VITRO CHROMOSOMAL ABERRATIONS, Test System: CHO CELLS, Metabolic Activation: NONE",inactive; negative
same,mutagenic call,"End Point: IN VITRO CHROMOSOMAL ABERRATIONS, Test System: CHO CELLS, Metabolic Activation: RAT, LIVER, S-9, AROCLOR 1254",active; positive
same,mutagenic call,"Test System: AMES SALMONELLA TYPHIMURIUM, Strain/Indicator: TA97, Metabolic Activation: HAMSTER, LIVER, S-9, AROCLOR 1254, Method: PREINCUBATION",inactive; negative
same,mutagenic call,[1],inactive; negative
same,mutagenic call,"Test System: AMES SALMONELLA TYPHIMURIUM, Strain/Indicator: TA97, Metabolic Activation: NONE, Method: STANDARD PLATE",inactive; negative
same,mutagenic call,"Test System: AMES SALMONELLA TYPHIMURIUM, Strain/Indicator: TA97, Metabolic Activation: RAT, LIVER, S-9, AROCLOR 1254, Method: PREINCUBATION",inactive; negative
same,mutagenic call,"Test System: AMES SALMONELLA TYPHIMURIUM, Strain/Indicator: TA97, Metabolic Activation: RAT, LIVER, S-9, PHENOBARBITAL, Method: STANDARD PLATE",inactive; negative
same,mutagenic call,"Test System: AMES SALMONELLA TYPHIMURIUM, Strain/Indicator: TA97, Metabolic Activation: S-9, Method: PREINCUBATION",inactive; negative
same,mutagenic call,"Test System: AMES SALMONELLA TYPHIMURIUM, Strain/Indicator: TA98, Metabolic Activation: HAMSTER, LIVER, S-9, AROCLOR 1254, Method: PREINCUBATION",inactive; negative
same,mutagenic call,[2],inactive; negative
same,mutagenic call,"Test System: AMES SALMONELLA TYPHIMURIUM, Strain/Indicator: TA98, Metabolic Activation: NONE, Method: STANDARD PLATE",inactive; negative
same,mutagenic call,"Test System: AMES SALMONELLA TYPHIMURIUM, Strain/Indicator: TA98, Metabolic Activation: RAT, LIVER, S-9, AROCLOR 1254, Method: PREINCUBATION",inactive; negative
same,mutagenic call,"Test System: AMES SALMONELLA TYPHIMURIUM, Strain/Indicator: TA98, Metabolic Activation: RAT, LIVER, S-9, PHENOBARBITAL, Method: STANDARD PLATE",inactive; negative
same,mutagenic call,"Test System: AMES SALMONELLA TYPHIMURIUM, Strain/Indicator: TA100, Metabolic Activation: HAMSTER, LIVER, S-9, AROCLOR 1254, Method: PREINCUBATION",inactive; negative
same,mutagenic call,[3],inactive; negative
same,mutagenic call,"Test System: AMES SALMONELLA TYPHIMURIUM, Strain/Indicator: TA100, Metabolic Activation: NONE, Method: STANDARD PLATE",inactive; negative
same,mutagenic call,"Test System: AMES SALMONELLA TYPHIMURIUM, Strain/Indicator: TA100, Metabolic Activation: RAT, LIVER, S-9, AROCLOR 1254, Method: PREINCUBATION",inactive; negative
same,mutagenic call,"Test System: AMES SALMONELLA TYPHIMURIUM, Strain/Indicator: TA100, Metabolic Activation: RAT, LIVER, S-9, PHENOBARBITAL, Method: STANDARD PLATE",inactive; negative
same,mutagenic call,"Test System: AMES SALMONELLA TYPHIMURIUM, Strain/Indicator: TA102, Metabolic Activation: NONE, Method: PREINCUBATION",inactive; negative
same,mutagenic call,"Test System: AMES SALMONELLA TYPHIMURIUM, Strain/Indicator: TA102, Metabolic Activation: RAT, LIVER, S-9, AROCLOR 1254, Method: PREINCUBATION",inactive; negative
same,mutagenic call,"Test System: AMES SALMONELLA TYPHIMURIUM, Strain/Indicator: TA102, Metabolic Activation: S-9, Method: PREINCUBATION",inactive; negative
same,mutagenic call,"Test System: AMES SALMONELLA TYPHIMURIUM, Strain/Indicator: TA104, Metabolic Activation: NONE, Method: STANDARD PLATE",inactive; negative
same,mutagenic call,"Test System: AMES SALMONELLA TYPHIMURIUM, Strain/Indicator: TA104, Metabolic Activation: RAT, LIVER, S-9, PHENOBARBITAL, Method: STANDARD PLATE",inactive; negative
same,mutagenic call,[4],inactive; negative
same,mutagenic call,"Test System: AMES SALMONELLA TYPHIMURIUM, Strain/Indicator: TA1537, Metabolic Activation: HAMSTER, LIVER, S-9, AROCLOR 1254, Method: PREINCUBATION",inactive; negative
same,mutagenic call,"Test System: AMES SALMONELLA TYPHIMURIUM, Strain/Indicator: TA1537, Metabolic Activation: NONE, Method: PREINCUBATION",inactive; negative
same,mutagenic call,"Test System: AMES SALMONELLA TYPHIMURIUM, Strain/Indicator: TA1537, Metabolic Activation: RAT, LIVER, S-9, AROCLOR 1254, Method: PREINCUBATION",inactive; negative
